Experimental findings from patent US11766437B2, “Combination therapies for inhibition of TTK protein kinase” (UNIVERSITY HEALTH NETWORK, priority 2018, dated 2023) are described below.

Data set [1] deals with CT26 mouse colon carcinoma. Put plainly: Treatment of established subcutaneous CT26 tumors in BALB/cJ mice (syngeneic CT26 mouse colon carcinoma model). It is filed as in vivo. The note with it: CFI-402257 6 mg/kg PO QD 21 days, anti-PD-1 antibody 150 μg IP Days 0, 3, 6, 10. How it is done:
(§1) BALB/cJ mice were inoculated subcutaneously with 1×10^6 CT26 cells. The mice were then randomized. Animal weights were monitored daily, and tumor volume was measured three times per week.
[…] was defined as 100×[1−TVf, treated−TVi, treated)/(TVf, control−TVi, control)], where TVf is the average tumor volume at the end of study and TVi is the average tumor volume at the end initiation of treatment. In cases in which tumor regression occurred, percentage of tumor regression was defined as 100×[1−(TVf, treated/TVi, treated)]. At the completion of each study, the mice were killed by an anesthetic overdose, and tumor tissue was removed for further analysis.
Treatments were initiated when tumor volumes reached an average size of ˜60 mm^3. To treat an established tumor, the animals were first assigned into groups, i.e., the control group receiving rat IgG2a […], the group receiving the compound CFI-402257 monotherapy, the group receiving the rat IgG2a anti-PD-1 antibody monotherapy and the group receiving the combination therapy. The compound CFI-402257 and the vehicle [10% (v/v) NMP/40% (v/v) PEG-300/50% (v/v) water for the hydrochloride form; or 80-90% (v/v) PEG-300 or PEG-400 20-10% (v/v) water for the bisphosphate hemihydrate form] were administered by oral gavage (PO), at 6 mg/kg daily (QD) for 21 days. […]

The nature of data set [2]: Animal body weight monitoring / tolerability in CT26 tumor-bearing BALB/cJ mice. It is filed as in vivo, mouse. How it is done:
as §1
Treatments were initiated when tumor volumes reached an average size of ˜60 mm^3. To treat an established tumor, the animals were first assigned into groups, i.e., the control group receiving rat IgG2a […], the group receiving the compound CFI-402257 monotherapy, the group receiving the rat IgG2a anti-PD-1 antibody monotherapy and the group receiving the combination therapy. The compound CFI-402257 and the vehicle [10% (v/v) NMP/40% (v/v) PEG-300/50% (v/v) water for the hydrochloride form; or 80-90% (v/v) PEG-300 or PEG-400 20-10% (v/v) water for the bisphosphate hemihydrate form] were administered by oral gavage (PO), at 6 mg/kg daily (QD) for 21 days. The anti-PD-1 antibody or the isotype control were administered by intraperitoneal (IP) injection. 150 μg anti-PD-1 antibody was administered in four doses, i.e., on Days 0, 3, 6 and 10. These treatment studies were carried out in duplicates.

Turning to `Cc1cc(-c2cnn3c(NC[C@H]4C[C@@](C)(O)C4)cc(Oc4cccnc4)nc23)ccc1C(=O)NC1CC1` [CFI-402257], the complete tumor regression result in data set [1] (first and duplicate experiment together (FIGS. 1 and 2)) was “no instances in which complete regression was observed”. Further, in data set [1] (single agent arms, first and duplicate experiment (FIGS. 1B, 1C, 2B, 2C)), the “effect on tumor growth (tumor volume)” value is listed as “tumor growth delay”. Moreover, in data set [2] (CFI-402257 6 mg/kg PO QD 21 days, anti-PD-1 antibody 150 μg IP Days 0, 3, 6, 10), the “tolerability of the administered dosage” value is given as “well-tolerated”. Further, the “animals recording significant body weight loss” value in data set [2] (first experiment) is on record as “none”. Further, in data set [2] (second experiment), the body weight loss was under 7.5%.
